Results as given in US20210395262A1, “INHIBITORS OF HUMAN IMMUNODEFICIENCY VIRUS REPLICATION” (ViiV HEALTHCARE UK (NO.5) LIMITED, priority 2018, published 2021).
pEC50: −log10 of the molar value.

Tests used:
recombinant NL4-3 virus = assay: HIV cell culture assay (antiviral activity, luciferase readout in MT-2 cells); type: cell-based; details: Human immunodeficiency virus 1, NL43, MT2
How it was run: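 MT-2 cells infected for 4-5 days with NL4-3 reference virus carrying Renilla luciferase in place of part of nef, in presence of serial compound dilutions. Luciferase activity read with live-cell substrate. EC50 derived from median effect equation, slope parameter m.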

[1] = Compound cytotoxicity, XTT-based colorimetric assay; type: cell-based; details: human; uninfected MT2 cells, day 4, XTT; read-out: CC50
How it was run: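 Run under the antiviral-assay protocol but without virus. Viability was read on day 4 and CC50 values were derived from the readout.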

SMILES	pEC50 (recombinant NL4-3 virus)	CC50 at 4 days [1] [nM]
C[C@@H]1CN(c2ccc3c(=O)n(-c4ccc(Cl)c5c(NS(C)(=O)=O)nn(CC(F)(F)F)c45)c([C@H](Cc4cc(F)cc(F)c4)NC(=O)Cn4nc(C(F)F)c5c4C(F)(F)[C@@H]4C[C@H]54)nc3c2)C[C@H](C)O1 (atropisomer, axis not shown; (P)) [Example 58, N—((S)-1-((3P)-3-(4-chloro-3-(methylsulfonamido)-1-(2,2,2-trifluoroethyl)-1H-indazol-7-yl)-7-((2S,6R)-2,6-dimethylmorpholino)-4-oxo-3,4-dihydroquinazolin-2-yl)-2-(3,5-difluorophenyl)ethyl)-2-((3bS,4aR)-3-(difluoromethyl)-5,5-difluoro-3b,4,4a,5-tetrahydro-1H-cyclopropa[3,4]cyclopenta[1,2-c]pyrazol-1-yl)acetamide]	10.28	> 500
C[C@@H]1CN(c2ccc3c(=O)n(-c4ccc(Cl)c5c(NS(C)(=O)=O)nn(C)c45)c([C@H](Cc4cc(F)cc(F)c4)NC(=O)Cn4nc(C(F)F)c5c4C(F)(F)[C@@H]4C[C@H]54)nc3c2)C[C@H](C)N1C (atropisomer, axis not shown; (P)) [Example 16, N—((S)-1-((3P)-3-(4-chloro-1-methyl-3-(methylsulfonamido)-1H-indazol-7-yl)-4-oxo-7-((3S,5R)-3,4,5-trimethylpiperazin-1-yl)-3,4-dihydroquinazolin-2-yl)-2-(3,5-difluorophenyl)ethyl)-2-((3bS,4aR)-3-(difluoromethyl)-5,5-difluoro-3b,4,4a,5-tetrahydro-1H-cyclopropa[3,4]cyclopenta[1,2-c]pyrazol-1-yl)acetamide]	10.10	> 1000
C[C@@H]1CN(c2ccc3c(=O)n(-c4ccc(Cl)c5c(NS(C)(=O)=O)nn(CC(F)F)c45)c([C@H](Cc4cc(F)cc(F)c4)NC(=O)Cn4nc(C(F)(F)F)c5c4C(F)(F)[C@@H]4C[C@H]54)nc3c2)C[C@H](C)O1 (atropisomer, axis not shown; (P)) [Example 45, N—((S)-1-((3P)-3-(4-chloro-1-(2,2-difluoroethyl)-3-(methylsulfonamido)-1H-indazol-7-yl)-7-((2S,6R)-2,6-dimethylmorpholino)-4-oxo-3,4-dihydroquinazolin-2-yl)-2-(3,5-difluorophenyl)ethyl)-2-((3bS,4aR)-5,5-difluoro-3-(trifluoromethyl)-3b,4,4a,5-tetrahydro-1H-cyclopropa[3,4]cyclopenta[1,2-c]pyrazol-1-yl)acetamide]	10.00	> 500
Cn1nc(NS(C)(=O)=O)c2c(Cl)ccc(-n3c([C@H](Cc4cc(F)cc(F)c4)NC(=O)Cn4nc(C(F)F)c5c4C(F)(F)[C@@H]4C[C@H]54)nc4cc(N5CC(C)(C)OC(C)(C)C5)ccc4c3=O)c21 (atropisomer, axis not shown; (P)) [Example 57, N—((S)-1-((3P)-3-(4-chloro-1-methyl-3-(methylsulfonamido)-1H-indazol-7-yl)-4-oxo-7-(2,2,6,6-tetramethylmorpholino)-3,4-dihydroquinazolin-2-yl)-2-(3,5-difluorophenyl)ethyl)-2-((3bS,4aR)-3-(difluoromethyl)-5,5-difluoro-3b,4,4a,5-tetrahydro-1H-cyclopropa[3,4]cyclopenta[1,2-c]pyrazol-1-yl)acetamide]	10.11	> 500
Cn1nc(NS(C)(=O)=O)c2c(Cl)ccc(-n3c([C@H](Cc4cc(F)cc(F)c4)NC(=O)Cn4nc(C(F)F)c5c4C(F)(F)[C@@H]4C[C@H]54)nc4cc(NCC(F)(F)F)ccc4c3=O)c21 (atropisomer, axis not shown; (P)) [Example 42, N—((S)-1-((3P)-3-(4-chloro-1-methyl-3-(methylsulfonamido)-1H-indazol-7-yl)-4-oxo-7-((2,2,2-trifluoroethyl)amino)-3,4-dihydroquinazolin-2-yl)-2-(3,5-difluorophenyl)ethyl)-2-((3bS,4aR)-3-(difluoromethyl)-5,5-difluoro-3b,4,4a,5-tetrahydro-1H-cyclopropa[3,4]cyclopenta[1,2-c]pyrazol-1-yl)acetamide]	9.96	> 1000
C[C@@H]1CN(c2ccc3c(=O)n(-c4ccc(Cl)c5c(NS(C)(=O)=O)nn(CC(F)F)c45)c([C@H](Cc4cc(F)cc(F)c4)NC(=O)Cn4ccc(C(C)(C)C)n4)nc3c2)C[C@H](C)O1 (atropisomer, axis not shown; (P)) [Example 49, 2-(3-(tert-butyl)-1H-pyrazol-1-yl)-N—((S)-1-((3P)-3-(4-chloro-1-(2,2-difluoroethyl)-3-(methylsulfonamido)-1H-indazol-7-yl)-7-((2S,6R)-2,6-dimethylmorpholino)-4-oxo-3,4-dihydroquinazolin-2-yl)-2-(3,5-difluorophenyl)ethyl)acetamide]	8.57	> 500
Cn1nc(NS(C)(=O)=O)c2c(Cl)ccc(-n3c([C@H](Cc4cc(F)cc(F)c4)NC(=O)Cn4nc(C(F)F)c5c4C(F)(F)[C@@H]4C[C@H]54)nc4cc(N5CCC5)ccc4c3=O)c21 (atropisomer, axis not shown; (P)) [Example 18, N—((S)-1-(7-(azetidin-1-yl)-(3P)-3-(4-chloro-1-methyl-3-(methylsulfonamido)-1H-indazol-7-yl)-4-oxo-3,4-dihydroquinazolin-2-yl)-2-(3,5-difluorophenyl)ethyl)-2-((3bS,4aR)-3-(difluoromethyl)-5,5-difluoro-3b,4,4a,5-tetrahydro-1H-cyclopropa[3,4]cyclopenta[1,2-c]pyrazol-1-yl)acetamide]	10.18	> 1000
C[C@@H]1CN(c2ccc3c(=O)n(-c4ccc(Cl)c5c(NS(C)(=O)=O)nn(CC(F)F)c45)c([C@H](Cc4cc(F)cc(F)c4)NC(=O)Cn4nc(C(F)F)cc4C4CC4)nc3c2)C[C@H](C)O1 [Example 46, N—((S)-1-((3P)-3-(4-chloro-1-(2,2-difluoroethyl)-3-(methylsulfonamido)-1H-indazol-7-yl)-7-((2S,6R)-2,6-dimethylmorpholino)-4-oxo-3,4-dihydroquinazolin-2-yl)-2-(3,5-difluorophenyl)ethyl)-2-(5-cyclopropyl-3-(difluoromethyl)-1H-pyrazol-1-yl)acetamide]	9.24	> 500
C[C@@H]1CN(c2ccc3c(=O)n(-c4ccc(Cl)c5c(NS(=O)(=O)C6CC6)nn(CC(F)(F)F)c45)c([C@H](Cc4cc(F)cc(F)c4)NC(=O)Cn4nc(C(F)(F)F)c5c4C(F)(F)[C@@H]4C[C@H]54)nc3c2)C[C@H](C)O1 (atropisomer, axis not shown; (P)) [Example 63, N—((S)-1-((3P)-3-(4-chloro-3-(cyclopropanesulfonamido)-1-(2,2,2-trifluoroethyl)-1H-indazol-7-yl)-7-((2S,6R)-2,6-dimethylmorpholino)-4-oxo-3,4-dihydroquinazolin-2-yl)-2-(3,5-difluorophenyl)ethyl)-2-((3bS,4aR)-5,5-difluoro-3-(trifluoromethyl)-3b,4,4a,5-tetrahydro-1H-cyclopropa[3,4]cyclopenta[1,2-c]pyrazol-1-yl)acetamide]	9.82	> 500
Cn1nc(NS(C)(=O)=O)c2c(Cl)ccc(-n3c([C@H](Cc4cc(F)cc(F)c4)NC(=O)Cn4nc(C(F)F)c5c4C(F)(F)[C@@H]4C[C@H]54)nc4cc(N5CC=CC5)ccc4c3=O)c21 (atropisomer, axis not shown; (P)) [Example 31, N—((S)-1-((3P)-3-(4-chloro-1-methyl-3-(methylsulfonamido)-1H-indazol-7-yl)-7-(2,5-dihydro-1H-pyrrol-1-yl)-4-oxo-3,4-dihydroquinazolin-2-yl)-2-(3,5-difluorophenyl)ethyl)-2-((3bS,4aR)-3-(difluoromethyl)-5,5-difluoro-3b,4,4a,5-tetrahydro-1H-cyclopropa[3,4]cyclopenta[1,2-c]pyrazol-1-yl)acetamide]	9.90	> 500
Cn1nc(NS(C)(=O)=O)c2c(Cl)ccc(-n3c([C@H](Cc4cc(F)cc(F)c4)NC(=O)Cn4nc(C(F)F)c5c4C(F)(F)[C@@H]4C[C@H]54)nc4cc(N5CCC(C)(C)CC5)ccc4c3=O)c21 (atropisomer, axis not shown; (P)) [Example 1, N—((S)-1-((3P)-3-(4-chloro-1-methyl-3-(methylsulfonamido)-1H-indazol-7-yl)-7-(4,4-dimethylpiperidin-1-yl)-4-oxo-3,4-dihydroquinazolin-2-yl)-2-(3,5-difluorophenyl)ethyl)-2-((3bS,4aR)-3-(difluoromethyl)-5,5-difluoro-3b,4,4a,5-tetrahydro-1H-cyclopropa[3,4]cyclopenta[1,2-c]pyrazol-1-yl)acetamide]	9.10	> 500
CS(=O)(=O)Nc1nn(CC(F)F)c2c(-n3c([C@H](Cc4cc(F)cc(F)c4)NC(=O)Cn4nc(C(F)F)c5c4C(F)(F)[C@@H]4C[C@H]54)nc4cc(N5CCOCC5)ccc4c3=O)ccc(Cl)c12 (atropisomer, axis not shown; (P)) [Example 7, N—((S)-1-((3P)-3-(4-chloro-1-(2,2-difluoroethyl)-3-(methylsulfonamido)-1H-indazol-7-yl)-7-morpholino-4-oxo-3,4-dihydroquinazolin-2-yl)-2-(3,5-difluorophenyl)ethyl)-2-((3bS,4aR)-3-(difluoromethyl)-5,5-difluoro-3b,4,4a,5-tetrahydro-1H-cyclopropa[3,4]cyclopenta[1,2-c]pyrazol-1-yl)acetamide]	10.07	> 500
C[C@@H]1CN(c2ccc3c(=O)n(-c4ccc(Cl)c5c(NS(=O)(=O)C6CC6)nn(CC(F)F)c45)c([C@H](Cc4cc(F)cc(F)c4)NC(=O)Cn4nc(C(F)F)cc4C(F)F)nc3c2)C[C@H](C)O1 (atropisomer, axis not shown; (P)) [Example 38, 2-(3,5-bis(difluoromethyl)-1H-pyrazol-1-yl)-N—((S)-1-((3P)-3-(4-chloro-3-(cyclopropanesulfonamido)-1-(2,2-difluoroethyl)-1H-indazol-7-yl)-7-((2S,6R)-2,6-dimethylmorpholino)-4-oxo-3,4-dihydroquinazolin-2-yl)-2-(3,5-difluorophenyl)ethyl)acetamide]	8.91	> 1000
